In patent publication US20240417387A1, “SULFONYLPIPERAZINYL COMPOUNDS FOR TREATMENT OF BACTERIAL INFECTIONS” (Hoffmann-La Roche Inc., priority 2021, published 2024):
Values after ≈ are worked out from the molar mass of the structure shown. Where two headings read alike, the source gives them in different places.

Columns and labels:
[1] = molecular target: Escherichia coli UDP-2,3-diacylglucosamine hydrolase (LpxH) (Escherichia coli (strain K12), UniProt P43341); assay: Enzymatic IC50 assay of Escherichia coli LpxH (UMP/CMP-Glo luminescence); format: biochemical
Chain of Escherichia coli UDP-2,3-diacylglucosamine hydrolase (LpxH) (P43341 whole entry): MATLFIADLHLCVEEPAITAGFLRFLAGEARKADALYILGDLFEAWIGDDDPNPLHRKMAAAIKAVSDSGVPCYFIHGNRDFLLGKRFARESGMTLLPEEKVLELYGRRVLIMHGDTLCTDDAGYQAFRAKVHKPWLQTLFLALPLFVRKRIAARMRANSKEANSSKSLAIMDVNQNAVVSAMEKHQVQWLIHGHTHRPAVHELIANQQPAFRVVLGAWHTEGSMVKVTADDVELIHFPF
Protocol: The inhibitory potency of compounds of Escherichia coli UDP-2,3-diacylglucosamine hydrolase (LpxH) was determined in an enzymatic assay. UDP-2,3-diacylglucosamine (UDP-DAG) was purified from the Caulobacter crescentus LpxI D225A mutant protein that contained a tightly bound UDP-DAG molecule. The enzyme was diluted using assay buffer containing 50 mM NaCl, 20 mM Tris-HCl pH7.5, 2.5 mM MnCl2, 0.01% Triton X-100.1 mg/mL BSA, and the final concentration is 2 nM. The compounds were diluted by Agilent liquid handler Bravo, the compound's serial dilution dose ranges from 100 μM to 1.7 nM. Then the enzyme and compounds mixture were incubated at room temperature for 10 mins. The enzymatic assay was started by adding UDP-DAG (FAC is 5 μM) and incubated for 20 mins at room temperature. The plate was then heated to 95° C. for 15 mins on a water batch to stop the reaction. The hydrolysis of UDP-DAG by LpxH yielded 2,3-diacylglucosamine 1-phosphate (lipid X) and UMP, which was converted to ATP and quantified by the luciferase reaction using the UMP/CMP-Glo™ Glycosyltransferase Assay kit from Promega. The compound's inhibitory effect of LpxH is determined by measuring the light change using a luminometer (Envision).

[2] = tested on: Escherichia coli ATCC 25922; assay: Minimal Inhibitory Concentration (MIC) broth dilution assay, E. coli ATCC 25922; format: cell-based; conditions: Escherichia coli, ATCC25922, 20 h, read-out: MIC E. coli ATCC 25922
Procedure, shortened: (§1)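 Broth microdilution with twofold compound series in cation-adjusted Mueller Hinton broth, inoculum 5×10^5 CFU/mL, applied to each strain. Plates incubated 20 h at 35 °C in ambient air. MIC […] recorded as the lowest concentration with no visible growth, read by eye.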

[3] = tested on: Klebsiella pneumonia ATCC 43816; assay: Minimal Inhibitory Concentration (MIC) broth dilution assay, K. pneumonia ATCC 43816; format: cell-based; conditions: Klebsiella pneumoniae, ATCC43816, 20 hours at 35° C., CAMHB, read-out: MIC K. p ATCC 43816
Procedure, shortened: as §1

[4] = tested on: Escherichia coli BW 25113; assay: Minimal Inhibitory Concentration (MIC) broth dilution assay, E. coli BW 25113; format: cell-based; conditions: Escherichia coli, BW25113, 20 hours at 35° C., CAMHB, read-out: MIC E. coli K-12 BW 25113
Procedure, shortened: as §1

[5] = Human microsome stability assay; format: in vitro ADME; conditions: human liver microsomes 0.5 mg/mL, 37° C., pH 7.4, NADPH regenerating system
Procedure, shortened: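 Compound […] with 0.5 mg/mL human liver microsomal protein in 100 mM potassium phosphate pH 7.4, 10 min preincubation at 37 °C, started with NADPH regenerating system. Sampled 0–30 min, remaining compound by LC-MS/MS; clearance binned low <7, medium 7–16.2, high >16.2 mL/min/kg.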

[6] = Enzymatic IC50 against Escherichia coli LpxH, read-out: IC50 (converted)

SMILES | IC50 [1, 6] | MIC [2] | MIC [3] | MIC [4] | Clearance of Human microsome [5] | IC50 [1]
NCCN1CCN(C(=O)[C@H]2CC[C@H](C(F)(F)c3cc(Cl)nc(N4CCN(S(=O)(=O)c5ccc(N6C[C@H](N)CC6=O)cc5)CC4)c3)CC2)CC1 [Example 013, Trans-(4R)-4-amino-1-[4-[4-[4-[[4-[4-(2-aminoethyl)piperazine-1-carbonyl]cyclohexyl]-difluoro-methyl]-6-chloro-2-pyridyl]piperazin-1-yl]sulfonylphenyl]pyrrolidin-2-one] | 4.15 nM | 2.6 µg/mL (≈ 3.59 µM) | 1.3 µg/mL (≈ 1.8 µM) | 2.6 µg/mL (≈ 3.59 µM) | 6.77 mL/min/kg | 
N[C@@H]1CC(=O)N(c2ccc(S(=O)(=O)N3CCN(c4cc(C(F)(F)[C@H]5CC[C@H](C(=O)NC6CNCC6O)CC5)cc(Cl)n4)CC3)cc2)C1 (some centres unmarked) [Example 006] | 4.31 nM | 1.1 µg/mL (≈ 1.58 µM) | 1.1 µg/mL (≈ 1.58 µM) | 1.1 µg/mL (≈ 1.58 µM) | 6.15 mL/min/kg | 
NCCCNC(=O)c1cnc(C(F)(F)c2cc(Cl)nc(N3CCN(S(=O)(=O)c4ccc(N5C[C@H](N)CC5=O)cc4)CC3)c2)cn1 [Example 021, N-(3-aminopropyl)-5-[[2-chloro-6-[4-[4-[(4R)-4-amino-2-oxo-pyrrolidin-1-yl]phenyl]sulfonylpiperazin-1-yl]-4-pyridyl]-difluoro-methyl]pyrazine-2-carboxamide] | 3.01 nM | 1.3 µg/mL (≈ 1.96 µM) | 1.8 µg/mL (≈ 2.71 µM) | 2.2 µg/mL (≈ 3.31 µM) | 10.85 mL/min/kg | 
N[C@@H]1CC(=O)N(c2ccc(S(=O)(=O)N3CCN(c4cc(C(F)(F)[C@H]5CC[C@H](C(=O)N6C[C@H](N)C[C@H](N)C6)CC5)cc(Cl)n4)CC3)cc2)C1 [Example 048, Trans-(4R)-4-amino-1-[4-[4-[6-chloro-4-[[4-cis-(3,5-diaminopiperidine-1-carbonyl)cyclohexyl]-difluoro-methyl]-2-pyridyl]piperazin-1-yl]sulfonylphenyl]pyrrolidin-2-one] | 18.3 nM | 1.2 µg/mL (≈ 1.69 µM) | 1.2 µg/mL (≈ 1.69 µM) | 1.2 µg/mL (≈ 1.69 µM) | 12.06 mL/min/kg | 
NCCCNC(=O)C1CC2C(C1)C2C(F)(F)c1cc(Cl)nc(N2CCN(S(=O)(=O)c3ccc(N4C[C@H](N)CC4=O)cc3)CC2)c1 (stereo partly drawn) [Example 055, N-(3-aminopropyl)-6-[[2-chloro-6-[4-[4-[(4R)-4-amino-2-oxo-pyrrolidin-1-yl]phenyl]sulfonylpiperazin-1-yl]-4-pyridyl]-difluoro-methyl]bicyclo[3.1.0]hexane-3-carboxamide] | 9.01 nM | 0.85 µg/mL (≈ 1.28 µM) | 0.55 µg/mL (≈ 0.826 µM) | 0.55 µg/mL (≈ 0.826 µM) | 8.58 mL/min/kg | 
C[N+]1(CCCNC(=O)c2ccc(C(F)(F)c3cc(Cl)nc(N4CCN(S(=O)(=O)c5ccc(N6C[C@H](N)CC6=O)cc5)CC4)c3)cc2)CCCC1 [Example 038, 4-[[2-Chloro-6-[4-[4-[(4R)-4-amino-2-oxo-pyrrolidin-1-yl]phenyl]sulfonylpiperazin-1-yl]-4-pyridyl]-difluoro-methyl]-N-[3-(1-methylpyrrolidin-1-ium-1-yl)propyl]benzamide] | 4.1 nM | 1.5 µg/mL | 1.5 µg/mL | 1.5 µg/mL | 6.80 mL/min/kg | 
CN(C)CCCNC(=O)c1cnc(C(F)(F)c2cc(Cl)nc(N3CCN(S(=O)(=O)c4ccc(N5C[C@H](N)CC5=O)cc4)CC3)c2)cn1 [Example 023, 5-[[2-chloro-6-[4-[4-[(4R)-4-amino-2-oxo-pyrrolidin-1-yl]phenyl]sulfonylpiperazin-1-yl]-4-pyridyl]-difluoro-methyl]-N-[3-(dimethylamino)propyl]pyrazine-2-carboxamide] | < 2.89 nM | 1.4 µg/mL (≈ 2.02 µM) | 2.9 µg/mL (≈ 4.19 µM) | 1.4 µg/mL (≈ 2.02 µM) | 6.15 mL/min/kg | 
NCC1(NC(=O)[C@H]2CC[C@H](C(F)(F)c3cc(Cl)nc(N4CCN(S(=O)(=O)c5ccc(N6C[C@H](N)CC6=O)cc5)CC4)c3)CC2)CC1 [Example 012, Trans-N-[1-(aminomethyl)cyclopropyl]-4-[[2-[4-[4-[(4R)-4-amino-2-oxo-pyrrolidin-1-yl]phenyl]sulfonylpiperazin-1-yl]-6-chloro-4-pyridyl]-difluoro-methyl]cyclohexanecarboxamide] | 2.94 nM | 0.57 µg/mL (≈ 0.838 µM) | 0.57 µg/mL (≈ 0.838 µM) | 0.57 µg/mL (≈ 0.838 µM) | 6.19 mL/min/kg | 
NCCCN(CCCN)C(=O)[C@H]1CC[C@H](C(F)(F)c2cc(Cl)nc(N3CCN(S(=O)(=O)c4ccc(N5C[C@H](N)CC5=O)cc4)CC3)c2)CC1 [Example 044, Trans-N,N-bis(3-aminopropyl)-4-[[2-chloro-6-[4-[4-[(4R)-4-amino-2-oxo-pyrrolidin-1-yl]phenyl]sulfonylpiperazin-1-yl]-4-pyridyl]-difluoro-methyl]cyclohexanecarboxamide] | 48.3 nM | 0.62 µg/mL (≈ 0.855 µM) | 1.2 µg/mL (≈ 1.65 µM) | 1.2 µg/mL (≈ 1.65 µM) | 7.30 mL/min/kg | 
NCC[N+]1(CCNC(=O)[C@H]2CC[C@H](C(F)(F)c3cc(Cl)nc(N4CCN(S(=O)(=O)c5ccc(N6C[C@H](N)CC6=O)cc5)CC4)c3)CC2)CCCC1 [Example 074, Trans-N-[2-[1-(2-aminoethyl)pyrrolidin-1-ium-1-yl]ethyl]-4-[[2-[4-[4-[(4R)-4-amino-2-oxo-pyrrolidin-1-yl]phenyl]sulfonylpiperazin-1-yl]-6-chloro-4-pyridyl]-difluoro-methyl]cyclohexanecarboxamide] | 39.9 nM | 1.9 µg/mL | 1.9 µg/mL | 1.9 µg/mL | 6.15 mL/min/kg | 
NCC1CN(C(=O)[C@H]2CC[C@H](C(F)(F)c3cc(Cl)nc(N4CCN(S(=O)(=O)c5ccc(N6C[C@H](N)CC6=O)cc5)CC4)c3)CC2)C1 [Example 057] | 2.94 nM | 1.1 µg/mL (≈ 1.62 µM) | 1.1 µg/mL (≈ 1.62 µM) | 1.1 µg/mL (≈ 1.62 µM) | 6.15 mL/min/kg | 
N[C@@H]1CC(=O)N(c2ccc(S(=O)(=O)N3CCN(c4cc(C(F)(F)c5ccc(C(=O)NCCCNCCO)nc5)cc(Cl)n4)CC3)cc2)C1 [Example 039, 5-[[2-Chloro-6-[4-[4-[(4R)-4-amino-2-oxo-pyrrolidin-1-yl]phenyl]sulfonylpiperazin-1-yl]-4-pyridyl]-difluoro-methyl]-N-[3-(2-hydroxyethylamino)propyl]pyridine-2-carboxamide] | 4.24 nM | 1.6 µg/mL (≈ 2.26 µM) | 1.6 µg/mL (≈ 2.26 µM) | 0.82 µg/mL (≈ 1.16 µM) | 6.15 mL/min/kg | 
N[C@@H]1CC(=O)N(c2ccc(S(=O)(=O)N3CCN(c4cc(C(F)(F)[C@H]5CC[C@H](C(=O)NCC6CNC6)CC5)cc(Cl)n4)CC3)cc2)C1 [Example 002, Trans-4-[[2-[4-[4-[(4R)-4-amino-2-oxo-pyrrolidin-1-yl]phenyl]sulfonylpiperazin-1-yl]-6-chloro-4-pyridyl]-difluoro-methyl]-N-(azetidin-3-ylmethyl)cyclohexanecarboxamide] | < 2.94 nM | 1.8 µg/mL (≈ 2.65 µM) | 1.8 µg/mL (≈ 2.65 µM) | 1.8 µg/mL (≈ 2.65 µM) | 6.15 mL/min/kg | 
C[N+](C)(C)CCCNC(=O)c1ccc(C(F)(F)c2cc(Cl)nc(N3CCN(S(=O)(=O)c4ccc(N5C[C@H](N)CC5=O)cc4)CC3)c2)cc1 [Example 037] | < 2.84 nM | 1.5 µg/mL | 1.5 µg/mL | 0.73 µg/mL | 6.66 mL/min/kg | 
CN1CC2(C1)CN(C(=O)[C@H]1CC[C@H](C(F)(F)c3cc(Cl)nc(N4CCN(S(=O)(=O)c5ccc(N6C[C@H](N)CC6=O)cc5)CC4)c3)CC1)C2 [Example 005, Trans-(4R)-4-amino-1-[4-[4-[6-chloro-4-[difluoro-[4-(6-methyl-2,6-diazaspiro[3.3]heptane-2-carbonyl)cyclohexyl]methyl]-2-pyridyl]piperazin-1-yl]sulfonylphenyl]pyrrolidin-2-one] | 4.25 nM | 2.2 µg/mL (≈ 3.12 µM) | 2.2 µg/mL (≈ 3.12 µM) | 3.3 µg/mL (≈ 4.67 µM) | 6.15 mL/min/kg | 
NC1CC(=O)N(c2ccc(S(=O)(=O)N3CCN(c4cc(C(F)(F)[C@H]5CC[C@H](C(=O)NCCCO)CC5)cc(Cl)n4)CC3)cc2)C1 (stereo partly drawn) [Example 003, Trans-4-[[2-[4-[4-(4-amino-2-oxo-pyrrolidin-1-yl)phenyl]sulfonylpiperazin-1-yl]-6-chloro-4-pyridyl]-difluoro-methyl]-N-(3-hydroxypropyl)cyclohexanecarboxamide] |  | 4.2 µg/mL (≈ 6.28 µM) | 2.1 µg/mL (≈ 3.14 µM) | 1 µg/mL (≈ 1.49 µM) | 7.41 mL/min/kg | < 2.99 nM
